Data: ChEMBL document CHEMBL1201862, “PubChem BioAssay data set” (2004)
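A five-concentration, 48-hour dose response in 96-well plates underlies each endpoint, interpolated linearly between surrounding concentrations. Abbreviation: GI50, concentration required for 50% inhibition of growth.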 Activity calls are given as the source filed them. Cut-off read from the data, not from the text of the source: active = GI50 up to about 1.1 µM and inactive = higher.

Tests used:
Experiment in all cases: inhibition of tumour cell growth, NCI panel, 48 h
MCF7 = system: MCF7
Malme-3M = system: Malme-3M
TK-10 = system: TK-10
LOX IMVI = system: LOX IMVI
OVCAR-4 = system: OVCAR-4
KM12 = system: KM12
UACC-257 = system: UACC-257
NCI/ADR-RES = system: NCI/ADR-RES
NCI-H23 = system: NCI-H23
MOLT-4 = system: MOLT-4
PC-3 = system: PC-3
OVCAR-5 = system: OVCAR-5
BT-549 = system: BT-549
COLO 205 = system: COLO 205
HCC 2998 = system: HCC 2998
RPMI-8226 = system: RPMI-8226
K562 = system: K562
EKVX = system: EKVX
MDA-MB-435 = system: MDA-MB-435
RXF 393 = system: RXF 393

Measured: GI50

O=C1CCC(=O)N1n1c(Cc2ccc(Cl)cc2)n[nH]c1=O
inactive: MCF7 > 100 µM | Malme-3M > 100 µM | TK-10 > 100 µM | LOX IMVI > 100 µM | OVCAR-4 > 100 µM | KM12 > 100 µM | UACC-257 > 100 µM | NCI/ADR-RES > 100 µM | NCI-H23 > 100 µM | MOLT-4 > 100 µM | PC-3 > 100 µM | OVCAR-5 > 100 µM | BT-549 > 100 µM | COLO 205 > 100 µM | HCC 2998 > 100 µM | RPMI-8226 > 100 µM | K562 > 100 µM | EKVX > 100 µM | MDA-MB-435 > 100 µM

NNC(=O)c1cccc2c1Oc1ccccc1S2
inactive: MCF7 > 100 µM | RXF 393 59.3 µM | TK-10 > 100 µM | LOX IMVI 88.3 µM | OVCAR-4 > 100 µM | KM12 > 100 µM | UACC-257 > 100 µM | NCI/ADR-RES 83.9 µM | NCI-H23 > 100 µM | MOLT-4 55 µM | PC-3 > 100 µM | BT-549 97.3 µM | COLO 205 > 100 µM | HCC 2998 > 100 µM | RPMI-8226 > 100 µM | K562 > 100 µM | EKVX 23.8 µM | MDA-MB-435 > 100 µM

C(=C\c1cc[n+](CCc2ccccc2)cc1)/c1ccccc1
inactive: MCF7 9.16 µM | Malme-3M 11.2 µM | RXF 393 88.7 µM | TK-10 21.5 µM | LOX IMVI 17.5 µM | OVCAR-4 9.04 µM | KM12 3.98 µM | UACC-257 4.25 µM | NCI/ADR-RES > 100 µM | NCI-H23 12.5 µM | MOLT-4 12.9 µM | PC-3 15.2 µM | OVCAR-5 22.9 µM | BT-549 11.3 µM | COLO 205 5.73 µM | RPMI-8226 5.45 µM | K562 16.8 µM | EKVX 56.9 µM | MDA-MB-435 4.98 µM

COC(=O)[C@H](C)N(C)C(=O)[C@H](C)N1[C@@H](c2ccccc2)COC1(C)C
inactive: MCF7 > 100 µM | Malme-3M > 100 µM | RXF 393 > 100 µM | TK-10 > 100 µM | LOX IMVI > 100 µM | OVCAR-4 > 100 µM | KM12 > 100 µM | UACC-257 > 100 µM | NCI/ADR-RES > 100 µM | NCI-H23 > 100 µM | MOLT-4 > 100 µM | PC-3 > 100 µM | OVCAR-5 > 100 µM | BT-549 > 100 µM | COLO 205 > 100 µM | RPMI-8226 > 100 µM | K562 > 100 µM | EKVX > 100 µM | MDA-MB-435 > 100 µM

Cc1ccc([S+]([O-])/C=C(\NC(=O)OCc2ccccc2)C(F)(F)F)cc1 (configuration not stated)
inactive: MCF7 32.2 µM | Malme-3M 35.2 µM | RXF 393 35.5 µM | TK-10 80.2 µM | LOX IMVI 32.1 µM | OVCAR-4 67.5 µM | KM12 32.9 µM | UACC-257 78 µM | NCI/ADR-RES 33.1 µM | NCI-H23 33.4 µM | MOLT-4 25.2 µM | PC-3 50.4 µM | OVCAR-5 52 µM | BT-549 > 100 µM | COLO 205 58.6 µM | HCC 2998 37.5 µM | K562 28.1 µM | EKVX 46.6 µM | MDA-MB-435 22.4 µM

COC(=O)C1(Cc2ccc3c(c2)CCC3)Cc2cc3c(cc2C1)CCC3
inactive: MCF7 22.5 µM | RXF 393 23.9 µM | TK-10 > 100 µM | LOX IMVI 18.7 µM | OVCAR-4 32.2 µM | KM12 33.2 µM | UACC-257 19.5 µM | NCI/ADR-RES 59.8 µM | NCI-H23 27.3 µM | MOLT-4 29.8 µM | PC-3 46 µM | OVCAR-5 55.6 µM | BT-549 42.7 µM | COLO 205 38.5 µM | HCC 2998 27.2 µM | RPMI-8226 53 µM | K562 30.5 µM | EKVX 45.2 µM | MDA-MB-435 39 µM

CC(C)(C)OC(=O)CN1CCNCCNCC1
inactive: MCF7 > 100 µM | Malme-3M > 100 µM | RXF 393 > 100 µM | TK-10 > 100 µM | LOX IMVI > 100 µM | OVCAR-4 > 100 µM | KM12 > 100 µM | UACC-257 > 100 µM | NCI/ADR-RES > 100 µM | NCI-H23 > 100 µM | MOLT-4 > 100 µM | PC-3 > 100 µM | OVCAR-5 > 100 µM | BT-549 > 100 µM | COLO 205 > 100 µM | RPMI-8226 > 100 µM | K562 > 100 µM | EKVX > 100 µM | MDA-MB-435 > 100 µM

COc1ccc(/C=N/n2c(Cc3ccccc3)n[nH]c2=O)cc1
inactive: MCF7 > 100 µM | Malme-3M > 100 µM | OVCAR-4 > 100 µM | KM12 > 100 µM | UACC-257 > 100 µM | NCI/ADR-RES > 100 µM | NCI-H23 94.8 µM | MOLT-4 > 100 µM | PC-3 > 100 µM | OVCAR-5 > 100 µM | BT-549 29.1 µM | COLO 205 > 100 µM | HCC 2998 > 100 µM | RPMI-8226 > 100 µM | K562 > 100 µM | EKVX > 100 µM | MDA-MB-435 > 100 µM

CCN(CC)N1C(=O)[N-][N+](CC)(CC)C1=O
inactive: MCF7 > 100 µM | Malme-3M > 100 µM | TK-10 > 100 µM | LOX IMVI > 100 µM | OVCAR-4 > 100 µM | KM12 > 100 µM | NCI/ADR-RES > 100 µM | NCI-H23 > 100 µM | MOLT-4 > 100 µM | PC-3 > 100 µM | OVCAR-5 > 100 µM | BT-549 > 100 µM | COLO 205 71.1 µM | HCC 2998 > 100 µM | RPMI-8226 > 100 µM | EKVX > 100 µM | MDA-MB-435 > 100 µM

O=C(NNC(c1ccccc1)C(F)(F)F)c1ccncc1 (configuration not stated)
inactive: MCF7 > 100 µM | Malme-3M > 100 µM | TK-10 > 100 µM | LOX IMVI > 100 µM | OVCAR-4 > 100 µM | KM12 > 100 µM | UACC-257 > 100 µM | NCI/ADR-RES > 100 µM | NCI-H23 > 100 µM | MOLT-4 > 100 µM | PC-3 > 100 µM | OVCAR-5 > 100 µM | BT-549 > 100 µM | COLO 205 > 100 µM | HCC 2998 > 100 µM | RPMI-8226 > 100 µM | K562 > 100 µM | EKVX > 100 µM | MDA-MB-435 > 100 µM

COc1ccc2c(c1)C1c3ccccc3CCN1CCC2 (configuration not stated)
inactive: MCF7 41.1 µM | RXF 393 47.6 µM | TK-10 > 100 µM | LOX IMVI 44.7 µM | OVCAR-4 > 100 µM | KM12 29.4 µM | UACC-257 39.6 µM | NCI/ADR-RES 31.2 µM | NCI-H23 47.9 µM | MOLT-4 35.6 µM | PC-3 29.2 µM | OVCAR-5 93.1 µM | BT-549 24.9 µM | COLO 205 44.7 µM | HCC 2998 23.4 µM | RPMI-8226 28.8 µM | K562 33 µM | EKVX > 100 µM | MDA-MB-435 19.9 µM

Cc1ccccc1Nc1cn(COCc2ccccc2)c(=O)[nH]c1=O
inactive: MCF7 > 100 µM | RXF 393 > 100 µM | LOX IMVI 59.8 µM | OVCAR-4 39.5 µM | KM12 57.5 µM | UACC-257 > 100 µM | NCI/ADR-RES 40.2 µM | NCI-H23 56.5 µM | MOLT-4 55.2 µM | PC-3 38.4 µM | OVCAR-5 > 100 µM | BT-549 14.5 µM | COLO 205 50.9 µM | HCC 2998 > 100 µM | RPMI-8226 > 100 µM | K562 > 100 µM | EKVX 30.7 µM | MDA-MB-435 85.3 µM

Cc1ccc(-c2n[nH]c(=O)n2N2C(=O)C=CC2=O)cc1
inactive: MCF7 > 100 µM | Malme-3M > 100 µM | RXF 393 > 100 µM | TK-10 > 100 µM | OVCAR-4 > 100 µM | UACC-257 > 100 µM | NCI/ADR-RES > 100 µM | NCI-H23 > 100 µM | MOLT-4 > 100 µM | PC-3 > 100 µM | OVCAR-5 > 100 µM | BT-549 > 100 µM | COLO 205 > 100 µM | HCC 2998 > 100 µM | K562 > 100 µM | EKVX > 100 µM | MDA-MB-435 > 100 µM

CCc1nc(N)nc(N)c1-c1ccc(Cl)c(/N=C/N(C)C)c1
inactive: MCF7 57.8 µM | RXF 393 > 89.3 µM | TK-10 > 100 µM | LOX IMVI 19.2 µM | OVCAR-4 72.3 µM | KM12 61.7 µM | UACC-257 > 100 µM | NCI/ADR-RES > 93.1 µM | NCI-H23 28.6 µM | MOLT-4 34.8 µM | PC-3 25.9 µM | OVCAR-5 > 100 µM | BT-549 > 81.7 µM | COLO 205 65 µM | HCC 2998 41.2 µM | RPMI-8226 54.3 µM | K562 6.03 µM | EKVX > 87.3 µM | MDA-MB-435 45.9 µM

CCOC(=O)C(SCCO)C(C(=O)OCC)n1cnc2c(=O)[nH]c(NC(C)=O)nc21 (configuration not stated)
inactive: MCF7 > 100 µM | Malme-3M > 100 µM | TK-10 > 100 µM | LOX IMVI 51.8 µM | OVCAR-4 > 100 µM | KM12 > 100 µM | UACC-257 > 100 µM | NCI/ADR-RES > 100 µM | NCI-H23 > 100 µM | MOLT-4 > 100 µM | PC-3 > 100 µM | OVCAR-5 > 100 µM | BT-549 > 100 µM | COLO 205 > 100 µM | HCC 2998 > 100 µM | RPMI-8226 > 100 µM | K562 > 100 µM | EKVX > 100 µM | MDA-MB-435 > 100 µM
